From article PMC8443597, “A prostate-specific membrane antigen activated molecular rotor for real-time fluorescence imaging” (Nature Communications, 2021)

Assays:
[1] = target: T1, prostate-specific membrane antigen (PSMA) (Homo sapiens, UniProt Q04609); assay: X-ray crystal structure ([…] Å); fluorescence saturation binding; IC50 from […]H-NAAG radioenzymatic assay; format: biochemical
T1 construct: gene FOLH1; extracellular domain of human PSMA (rhPSMA; amino acids 44–750)

[2] = target: T1, prostate-specific membrane antigen (PSMA); assay: fluorescence saturation binding ([…]) with rhPSMA; IC50 from […]H-NAAG radioenzymatic assay; format: biochemical

T1 sequence (Q04609 44-750): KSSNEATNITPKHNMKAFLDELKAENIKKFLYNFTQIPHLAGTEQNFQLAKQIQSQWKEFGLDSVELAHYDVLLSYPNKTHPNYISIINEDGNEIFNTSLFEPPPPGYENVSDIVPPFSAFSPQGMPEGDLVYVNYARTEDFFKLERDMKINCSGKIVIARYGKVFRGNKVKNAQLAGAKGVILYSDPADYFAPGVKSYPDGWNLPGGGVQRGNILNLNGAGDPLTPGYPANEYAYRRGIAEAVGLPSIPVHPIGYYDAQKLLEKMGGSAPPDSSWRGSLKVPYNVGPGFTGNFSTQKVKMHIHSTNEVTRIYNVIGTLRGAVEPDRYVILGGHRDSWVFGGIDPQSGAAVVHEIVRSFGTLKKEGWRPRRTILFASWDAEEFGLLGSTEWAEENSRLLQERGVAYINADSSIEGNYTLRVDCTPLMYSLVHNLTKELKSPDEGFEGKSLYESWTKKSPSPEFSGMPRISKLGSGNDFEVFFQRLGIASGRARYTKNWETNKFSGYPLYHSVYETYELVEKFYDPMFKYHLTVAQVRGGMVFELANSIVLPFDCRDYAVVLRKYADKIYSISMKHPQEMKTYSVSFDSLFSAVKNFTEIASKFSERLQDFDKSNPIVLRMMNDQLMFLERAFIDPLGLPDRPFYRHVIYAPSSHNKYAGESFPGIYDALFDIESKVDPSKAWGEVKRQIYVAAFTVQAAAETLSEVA

Row | IC50 [1] | IC50 [2] | SMILES
1 | 63.1 pM | – | COC(=O)CCN1CCCc2cc(-c3ccc(C=C(C#N)C(=O)NCCCC[C@H](NC(=O)N[C@@H](CCC(=O)O)C(=O)O)C(=O)O)s3)ccc21 [Glu-490, (((S)-1-carboxy-5-(2-cyano-3-(5-(1-(3-methoxy-3-oxopropyl)-1,2,3,4-tetrahydroquinolin-6-yl)thiophen-2-yl)acrylamido)pentyl)carbamoyl)-L-glutamic acid]
2 | – | 118 pM | COC(=O)CCN1CCCc2cc(C=C(C#N)C(=O)NCCCC[C@H](NC(=O)N[C@@H](CNC(=O)C(=O)O)C(=O)O)C(=O)O)ccc21 [ODAP-436, (4 S,8 S)-15-cyano-16-(1-(3-methoxy-3-oxopropyl)-1,2,3,4-tetrahydroquinolin-6-yl)-1,6,14-trioxo-2,5,7,13-tetraazahexadec-15-ene-1,4,8-tricarboxylic acid]
3 | – | 99.6 pM | COC(=O)CCN1CCCc2cc(-c3ccc(C=C(C#N)C(=O)NCCCC[C@H](NC(=O)N[C@@H](CNC(=O)C(=O)O)C(=O)O)C(=O)O)s3)ccc21 [ODAP-490, (4 S,8 S)-15-cyano-16-(5-(1-(3-methoxy-3-oxopropyl)-1,2,3,4-tetrahydroquinolin-6-yl)thiophen-2-yl)-1,6,14-trioxo-2,5,7,13-tetraazahexadec-15-ene-1,4,8-tricarboxylic acid]
